Reference: US20260174707A1, “USE OF GNRH ANTAGONIST IN REGULATION AND CONTROL OF ESTRUS OF MAMMAL” (priority 2022, published 2026)
Marks after values point to notes of the source that are not given here. Where a SMILES comes first, the peptide text is derived from it. [ ]: non-standard residue; d: D form. The star is where a group is joined. dPhe(4-NHCONH2) = NC(=O)Nc1ccc(C[C@@H](N)C(=O)O)cc1; Dihydroorotyl(S) = O=C1C[C@@H](C(=O)*)NC(=O)N1; dPhe(4-Cl) = N[C@H](Cc1ccc(Cl)cc1)C(=O)O; Phe(4-NH2) = Nc1ccc(C[C@H](N)C(=O)O)cc1; d2Nal = N[C@H](Cc1ccc2ccccc2c1)C(=O)O; Lys(iPr) = CC(C)NCCCC[C@H](N)C(=O)O; d3Pal = N[C@H](Cc1cccnc1)C(=O)O

Legend:
Format in all cases: in vivo
female dogs = assay: Inhibiting effect on female dogs in proestrus; settings: 1.5 mg/kg subcutaneous
Protocol: Healthy female dogs in proestrus (the proestrus period was less than 3 days) were selected and divided into an experimental group and a control group. Each group of the animals was treated with subcutaneous injections, the female dogs in control group were injected with normal saline, and the female dogs in experimental group were injected with 1.5 mg/kg body weight of Degarelix, each group of the treated animals was fed and observed in the same way to detect the oestrus of the female dogs.

sowpigs = assay: Oestrus inhibition in sowpigs (oestrus performance observed); settings: intramuscular injection once
Protocol: Thirty healthy adult sowpigs were selected and divided into a control group and Degarelix experimental groups, with 6 sowpigs in each group. The four Degarelix experimental groups were intramuscularly injected with different doses of Degarelix, namely 10 μg/kg body weight, 20 μg/kg body weight, 40 μg/kg body weight and 160 μg/kg body weight, respectively. The control group was intramuscularly injected with normal saline, and the oestrus performance (e.g., vulva performance and static reaction) of the sowpigs was observed and recorded to determine whether the sowpigs were in oestrus, and the time to restore oestrus after administration was recorded.

male dogs = assay: Inhibiting effect on male dogs (serum testosterone, scrotum circumference, sexual behavior); settings: 1.5 mg/kg subcutaneous
Protocol: Adult healthy male dogs with normal reproductive capacity were selected and divided into an experimental group and a control group. Each group of the animals was treated with subcutaneous injections, male dogs in the control group were injected with normal saline, and male dogs in the experimental group were injected with 1.5 mg/kg body weight of Degarelix, the treated animals in each group were fed and observed in the same way. Blood was collected from the animals regularly to measure and record the concentration of testosterone in serum (blood was collected and detected before the injection of drugs, and 1 h, 2 h, 4 h, 6 h, 8 h, 24 h, 48 h, 72h, 120 h and 168 h after the injection of drugs, and after that, the blood was collected every 168 h (1 week) until the end of the experiment), and scrotum circumference of male animals was measured and recorded regularly, sexual behavior of the male animals was observed and recorded, and compared with that of male animals in the control group.

gilts = assay: Oestrus synchronization of gilts (inhibitor, then PMSG); settings: 1,000 units PMSG im on 20th day
Protocol: Comparison of experiments of administering Degarelix and altrenogest in achieving oestrus synchronization in gilts was performed. Twelve healthy adult gilts were selected and divided into two groups, namely an altrenogest group and a Degarelix group, with 6 gilts in each group. Among them, gilts in the altrenogest group were fed 20 mg of altrenogest every day for 18 consecutive days, while gilts in the Degarelix group were intramuscularly injected with 15 μg/kg body weight of Degarelix only on the first day. Both groups of gilts were intramuscularly injected with 1,000 units of PMSG on the 20th day after the first administration, then test whether the gilts in different treatment groups can achieve the estrus synchronization.

female mice [1] = assay: Oestrus synchronization of female mice (Degarelix, then PMSG and HCG); settings: 1.0 mg/kg sc; 5 units PMSG ip on 14th day; 5 units HCG ip after 46 hours
Protocol: It was discovered from the oestrus inhibition experiments that a dose of 1.0 mg/kg can inhibit oestrus of female mice for at least 15 days. Six 6-week-old female mice were selected for further oestrus synchronization experiments. The specific method was as follows: the female mice were subcutaneously injected 1.0 mg/kg of Degarelix, and intraperitoneally injected 5 units of PMSG on the 14th day after administration, and intraperitoneally injected 5 units of HCG after 46 hours, and then the oestrus of the female mice was detected.

female mice [2] = assay: Oestrus inhibition in female mice (daily vaginal smear); settings: only subcutaneous injection once
Protocol: Twenty-four 6-week-old female mice were selected and divided into 4 groups, with 6 mice in each group. The female mice in the negative control group were subcutaneously injected with normal saline, the female mice in the Abarelix group were subcutaneously injected with a dosage of 2 mg/kg/day for 8 consecutive days, the female mice in the Cetrorelix group were subcutaneously injected with a dosage of 2 mg/kg/day for 8 consecutive days, and the female mice in the Degarelix group were subcutaneously injected once with a dose of 2 mg/kg. After administration, vaginal smear experiments were performed on female mice every day to detect the stage of the oestrus cycle of female mice in each group. […] Thirty-two 6-week-old female mice were selected and divided into 4 groups, with 8 mice in each group. The female mice in the negative control group were subcutaneously injected with normal saline, and the female mice in the three Degarelix groups were subcutaneously injected with different dosages (0.4 mg/kg, 0.6 mg/kg and 1.0 mg/kg) of Degarelix once. After administration, vaginal smear experiments were performed on female mice every day to detect the oestrous condition.

[3] = gilts, 15 μg/kg im only on first day
[4] = gilts fed 20 mg every day for 18 days

SMILES	Oestrus stage by vaginal smear (female dogs)	Oestrus symptoms (vulvar redness and swelling, vaginal discharge of mucus) (female dogs)	Time to restore oestrus after administration (sowpigs; 10 μg/kg)	Time to restore oestrus after administration (sowpigs; 20 μg/kg)	Time to restore oestrus after administration (sowpigs; 40 μg/kg)	Sexual behaviour (male dogs)	Scrotal circumference (male dogs; after a period of treatment)	Erection and semen collection (male dogs; after treatment)	Testosterone concentration in serum (male dogs; compared to control group)	Days after PMSG injection on which gilts were in oestrus (gilts; [3])	Number of days over which gilts were concentrated in oestrus (gilts; [3]) [days]	Oestrus of all gilts after administration of exogenous hormones (gilts; [3])	Days on which female mice were concentrated in oestrus (female mice [1])	Time of inhibiting oestrus (female mice [2]; low dose 0.4 mg/kg)	Time of inhibiting oestrus (female mice [2]; middle dose 0.6 mg/kg)	Days after PMSG injection on which gilts were in oestrus (gilts; [4])	Number of days over which gilts were concentrated in oestrus (gilts; [4]) [days]	Oestrus of all gilts after administration of exogenous hormones (gilts; [4])
CC(=O)N[C@H](Cc1ccc2ccccc2c1)C(=O)N[C@H](Cc1ccc(Cl)cc1)C(=O)N[C@H](Cc1cccnc1)C(=O)N[C@@H](CO)C(=O)N[C@@H](Cc1ccc(NC(=O)[C@@H]2CC(=O)NC(=O)N2)cc1)C(=O)N[C@H](Cc1ccc(NC(N)=O)cc1)C(=O)N[C@@H](CC(C)C)C(=O)N[C@@H](CCCCNC(C)C)C(=O)N1CCC[C@H]1C(=O)N[C@H](C)C(N)=O [Degarelix] (Ac-[d2Nal][dPhe(4-Cl)][d3Pal]S[Phe(4-NH2)](Dihydroorotyl(S))[dPhe(4-NHCONH2)]L[Lys(iPr)]P[dA]-NH2)	quickly changed from proestrus to diestrus	gradually disappeared 3 days after the injection	21.50 ± 2.45^b days	38.83 ± 2.37^c days	53.83 ± 3.16^d days	significantly reduced	significantly reduced	abnormal erections and no semen could be collected	decreased significantly	3rd to the 5th day	3	in oestrus within one week	17th and 18th days	7.13 ± 2.09^b days	8.50 ± 3.54^bc days	–	–	–
C=CC[C@]1(O)CC[C@H]2[C@@H]3CCC4=CC(=O)CCC4=C3C=C[C@@]21C [altrenogest]	–	–	–	–	–	–	–	–	–	–	–	–	–	–	–	3rd day to the 6th day	4	in oestrus within one week
